Laboratory results reported in patent US20260240761A1, “ORAL FILM UNIT DOSAGE FORM” (SWIPP AB, priority 2023, published 2026).
Structures can show the parent of a compound that is named as a salt.

Key:
[1] = XRPD of sedimented material from the solvent screening; assay type: physicochemical; conditions: solvent evaporated at ambient temperature
Procedure: Test tubes prepared with ethanol and ethyl acetate, respectively, corresponding to the last step in Example 14, were prepared and allowed to sediment overnight. The solvents in each sample of sedimented material were slowly evaporated off at ambient temperature and atmospheric pressure. It was then subjected to the XRPD method described in Example 12 except that only steps 1-2 of that method were performed, and that the reference “API raw material” recorded in step 1 was midazolam hydrochloride and not midazolam base.

[2] = Solvent screening: solubility of midazolam hydrochloride in process solvents; assay type: physicochemical
Procedure: For each solvent, four test tubes were prepared, containing about 1 g solvent and midazolam hydrochloride at amounts of about 0.1 wt %, 1 wt %, 4 wt % and 7 wt %, respectively. The tubes were thoroughly mixed and were then visually observed and photographed. After 15 minutes of resting, they were again visually observed and photographed, and were then mixed again. After another 1 hour, they were finally visually observed and photographed. It was noted whether there were any undissolved solid material remaining, approximately how much, and whether it had sedimented at the bottom or formed a whitish suspension, and if that suspension was translucent or opaque. No analytical method, e.g., HPLC Assay, was used to actually quantify the precise solubilities because the main aim was just to determine whether the midazolam hydrochloride was predominately dissolved or solid, at 4 wt % and 7 wt % respectively, which represent typical levels for the midazolam hydrochloride content in a wet mix. If midazolam hydrochloride was predominately […] at 7 wt %, the solvent was deemed to be potentially very feasible.

## Cc1ncc2n1-c1ccc(Cl)cc1C(c1ccccc1F)=NC2 [midazolam hydrochloride]
[1]; sediment from ethanol
  XRPD identity of sedimented material: a solid crystalline material that was not midazolam hydrochloride
[1]; sediment from ethyl acetate
  XRPD identity of sedimented material: appeared to be identical to midazolam hydrochloride
[2]; 1-pentanol, 0.1 wt %
  Visual appearance at last observation: clear
[2]; 1-pentanol, 1 wt %
  Visual appearance at last observation: translucent
[2]; 1-pentanol, 4 wt %
  Visual appearance at last observation: opaque
[2]; 1-pentanol, 7 wt %
  Visual appearance at last observation: opaque
[2]; 2-propanol, 0.1 wt %
  Visual appearance at last observation: clear
[2]; 2-propanol, 1 wt %
  Visual appearance at last observation: translucent
[2]; 2-propanol, 4 wt %
  Visual appearance at last observation: opaque
[2]; 2-propanol, 7 wt %
  Visual appearance at last observation: opaque
[2]; acetone, 0.1, 1, 4 and 7 wt %
  Visual appearance at last observation: clear supernatant over sedimented
[2]; ethanol, 0.1 wt %
  Visual appearance at last observation: clear
[2]; ethanol, 1 wt %
  Visual appearance at last observation: clear
[2]; ethanol, 4 wt %
  Visual appearance at last observation: opaque
[2]; ethanol, 7 wt %
  Visual appearance at last observation: opaque
[2]; ethyl acetate, 0.1 wt %
  Visual appearance at last observation: cloudy
[2]; ethyl acetate, 1 wt %
  Visual appearance at last observation: opaque
[2]; ethyl acetate, 4 wt %
  Visual appearance at last observation: opaque
[2]; ethyl acetate, 7 wt %
  Visual appearance at last observation: opaque
[2]; in 1-pentanol
  Solubility (tentative interpretation): Solubility is between 0.1-1 wt %
[2]; in 2-propanol
  Solubility (tentative interpretation): Solubility is between 0.1-1 wt %
[2]; in acetone
  Solubility (tentative interpretation): Solubility is ≤0.1 wt %. Solvent
[2]; in ethanol
  Solubility (tentative interpretation): Solubility is between 1-4 wt %.
[2]; in ethyl acetate
  Solubility (tentative interpretation): Solubility is ≤0.1 wt %. Solvent
[2]; in isobutyl acetate
  Solubility (tentative interpretation): Solubility is ≤0.1 wt %. Solvent
[2]; in methyl acetate
  Solubility (tentative interpretation): Solubility is ≤0.1 wt %. Solvent
[2]; isobutyl acetate, 0.1 wt %
  Visual appearance at last observation: cloudy
[2]; isobutyl acetate, 1 wt %
  Visual appearance at last observation: opaque
[2]; isobutyl acetate, 4 wt %
  Visual appearance at last observation: opaque
[2]; isobutyl acetate, 7 wt %
  Visual appearance at last observation: opaque
[2]; methyl acetate, 0.1 wt %
  Visual appearance at last observation: cloudy
[2]; methyl acetate, 1 wt %
  Visual appearance at last observation: opaque
[2]; methyl acetate, 4 wt %
  Visual appearance at last observation: opaque
[2]; methyl acetate, 7 wt %
  Visual appearance at last observation: opaque
